The text below walks through data of ChEMBL document CHEMBL4840357, “Functionalized Dioxonaphthoimidazoliums: A Redox Cycling Chemotype with Potent Bactericidal Activities against Mycobacterium tuberculosis” (J Med Chem, 2021).

Series [1] concerns Mycobacterium tuberculosis. The series is classed as functional. Conditions: H37Rv ATCC 27294, 168 h, time 7 day.
The subject of series [2] is Mycobacterium tuberculosis. The series is classed as functional. Conditions: H37Rv ATCC 27294, 168 h, time 7 day, read-out: MBC99.9.
A further series has as its system Vero. As to the kind of experiment: Cytotoxicity against African green monkey Vero cells assessed as reduction in cell viability incubated for 48 hrs by CellTiter 96 aqueous one solution reagent based assay. Conditions: Chlorocebus sabaeus.
Series [3] in a line: Selectivity index, ratio of IC50 for African green monkey Vero cells to MIC50 for Mycobacterium tuberculosis H37Rv ATCC 27294. It is filed as toxicity. Conditions: read-out: Selectivity Index.
Series [4] concerns Mycolicibacterium smegmatis. The series can be described thus: Induction of NADH oxidation in Mycobacterium smegmatis mc24517 inverted membrane vesicles. It is filed as functional, Membrane vesicle.
Series [5] in a line: Mutagenicity in Salmonella typhimurium TA100 at 1.5 to 64 ug in presence of S9 fraction by ames test. The series is classed as toxicity, subcellular, Salmonella enterica subsp. enterica serovar Typhimurium. Conditions: dose 1.5-64 µg.
For series [6], the system named is Mycobacterium tuberculosis. It is filed as functional, organism-based. Conditions: H37Rv ATCC 27294, time 7.0 day.
In series [7] the test system is Mycolicibacterium smegmatis. As to the kind of experiment: Induction of oxygen consumption in Mycobacterium smegmatis mc24517 inverted membrane vesicles. The series is classed as functional.
Series [8] has as its system Mycolicibacterium smegmatis. As to the kind of experiment: Induction of hydrogen […] production in Mycobacterium smegmatis mc24517 inverted membrane vesicles. It is filed as functional.
Series [9] has as its system Mycolicibacterium smegmatis. The series can be described thus: Induction of pH gradient dissipation in Mycobacterium smegmatis mc24517 inverted membrane vesicles at 1 to 2 uM. It is filed as functional. Conditions: Membrane vesicle, dose 1-2 µM.
Series [10] in a line: Aqueous solubility of compound at pH 7.4. The series is classed as physicochemical. Conditions: buffer.
Series [11] is described as follows: Permeability of compound incubated for 16 hrs by PAMPA. It is filed as ADME.
A short description of series [12]: Metabolic stability in rat microsomes assessed as half life preincubated for 5 mins followed by NADPH addition and measured upto 45 mins by LC-MS/MS analysis. The series is classed as ADME, Microsome. Conditions: time <=50 min.
Series [13] is described as follows: Oral bioavailability in Swiss albino mouse at 50 mg/kg measured upto 24 hrs by HPLC-LCMS analysis. The series is classed as ADME, organism-based. Conditions: in vivo.
Series [14] is described as follows: Volume of distribution in Swiss albino mouse at 50 mg/kg, po or 1 mg/kg, iv measured upto 24 hrs by HPLC-LCMS analysis. The series is classed as ADME, organism-based. Conditions: in vivo.
Series [15] in a line: Clearance in Swiss albino mouse at 50 mg/kg, po or 1 mg/kg, iv measured upto 24 hrs by HPLC-LCMS analysis. The series is classed as ADME, organism-based. Conditions: in vivo.
Series [16] can be described thus: Half life in Swiss albino mouse at 50 mg/kg, po or 1 mg/kg, iv measured upto 24 hrs by HPLC-LCMS analysis. It is filed as ADME, organism-based. Conditions: in vivo.
Series [17] can be described thus: Mutagenicity in Salmonella typhimurium TA98 at 1.5 to 64 ug in presence of S9 fraction by ames test. The series is classed as toxicity, subcellular, Salmonella enterica subsp. enterica serovar Typhimurium. Conditions: dose 1.5-64 µg.
Series [18] in a line: Mutagenicity in Salmonella typhimurium TA98 at 1.5 to 64 ug in absence of S9 fraction by ames test. The series is classed as toxicity, Salmonella enterica subsp. enterica serovar Typhimurium. Conditions: in vivo; dose 1.5-64 µg.
Series [19] is described as follows: Mutagenicity in Salmonella typhimurium TA100 at 1.5 to 64 ug in absence of S9 fraction by ames test. The series is classed as toxicity, Salmonella enterica subsp. enterica serovar Typhimurium. Conditions: in vivo; dose 1.5-64 µg.

pEC50, pIC50: −log10 of the molar value. In brackets after ≈: the same amount, converted by molar mass. Activity calls are given as the source filed them. No cut-off for these calls is given here.

In series [1], `CCCCCCCCn1c2c([n+](C3CCC4(CCCCC4)CC3)c1C)C(=O)c1ccccc1C2=O` registered an MIC50 of 0.3 µM and an MIC90 of 0.4 µM. Moreover, the MBC in series [2] amounted to 1.2 µM. Further, the negative-log IC50 (pIC50) in the series with Vero was 5.30. Also, the selectivity ratio in series [3] stood at 17.

Consider `CCCCCC[n+]1c2c(n(CC(C)C)c1C)C(=O)c1ccccc1C2=O`, for which, in series [1], the MIC50 is 4 µM and the MIC90 worked out at 6 µM.

In [4], `CCCCCCCCn1c2c([n+](CCCC)c1C)C(=O)c1ccccc1C2=O.[Br-]` had a pEC50 of 6.60. In addition, the Activity entry in series [5], in series [17], in series [18] and in [19] was “Non-Toxic” throughout. Besides, the MIC50 in series [1] was found to be 0.82 µM. Further, the MIC90 in series [1] was 1.5 µM. Besides, the MBC in series [2] came out at 6.3 µM. Further, in the series with Vero, the negative logarithm of the IC50 (pIC50) is 4.62. The selectivity ratio in [3] amounted to 29. For the same molecule, the outcome in [6] and in series [9] was Active. The “fold change (FC)” value was determined as 7 in series [7] and 4 in series [8]. The molecule further had a solubility in series [10] of 118 µM. For the same molecule, the permeability result in series [11] is on record as “Not Active”. Further, the values for the half-life in series [12] and in [16] were 20 min and 420 min, respectively. The molecule also had a bioavailability in series [13] of 1%. Besides, the Vd in series [14] is 27 L/kg. In addition, in [15], the clearance amounted to 38 mL/min/kg.

On to `CCCCCCCC[n+]1c2c(n(CC(C)C)c1C)C(=O)c1ccccc1C2=O`, for which, in series [1], the MIC50 is 2 µM and the MIC90 stood at 3 µM.

`CCCCCCCn1c2c([n+](CCCCC)c1C)C(=O)c1ccccc1C2=O.[Br-]`: in [1], the MIC50 came to 0.77 µM and the MIC90 came to 1.2 µM. The MBC in series [2] amounted to 6.3 µM. In the series with Vero, the pIC50 was 4.70. For the same molecule, in series [3], the selectivity ratio was found to be 26. In addition, the outcome in [6] was Active.

In [1], `CC(C)/N=c1\cc2n(-c3ccc(Cl)cc3)c3ccccc3nc-2cc1Nc1ccc(Cl)cc1` [CLOFAZIMINE] gave an MIC50 of 0.2 µM (≈ 0.0947 µg/mL) and an MIC90 of 0.8 µM (≈ 0.379 µg/mL).

In series [1], `NNC(=O)c1ccncc1` [ISONIAZID] registered an MIC50 of 1.6 µM (≈ 0.219 µg/mL) and an MIC90 of 3.2 µM (≈ 0.439 µg/mL).

`CCCCCCn1c2c([n+](C3CCC4(CCCCC4)CC3)c1C)C(=O)c1ccccc1C2=O`: in series [1], the MIC50 was found to be 0.3 µM and the MIC90 was 0.4 µM. In [2], the MBC was determined as 1.6 µM. For the same molecule, the negative-log IC50 (pIC50) in the series with Vero was 5.20. Also, the selectivity ratio in series [3] was 21.

Regarding `CCCCn1c2c([n+](C3CCC4(CCCCC4)CC3)c1C)C(=O)c1ccccc1C2=O.[Br-]`, the Activity result in series [5], in series [17], in series [18] and in [19] was “Non-Toxic” in each case. Further, in series [1], the MIC50 was determined as 0.28 µM. This molecule returned an MIC90 in series [1] of 0.53 µM. The MBC in series [2] is 1.6 µM. Also, the negative logarithm of the IC50 (pIC50) in the series with Vero was 4.82. The selectivity ratio in [3] stood at 54. In [10], this molecule yielded a solubility of 118 µM. Moreover, the permeability result in series [11] is listed as “Not Active”. Moreover, the figures for the half-life in series [12] and in [16] were 20 min and 420 min, respectively. The molecule also registered a bioavailability in series [13] of 1%. Further, the Vd in [14] stood at 27 L/kg. Moreover, the clearance in [15] stood at 38 mL/min/kg.

Consider `CCCCCCn1c2c([n+](CCCCCC)c1C)C(=O)c1ccccc1C2=O`, for which, in [1], the MIC50 was 0.67 µM and the MIC90 is 1.5 µM. For the same molecule, in series [2], the MBC stood at 6.3 µM. Further, the pIC50 with Vero was 4.85. In addition, the selectivity ratio in series [3] was determined as 21.
